Measurements: patent publication US6875762B2, “Tetracyclic azepinoindole compounds” (Pfizer, priority 1999, dated 2005)
Structures can show the parent of a compound that is named as a salt.

target: T1, Human 5-HT2C receptor (Homo sapiens, UniProt P28335); experiment: Test A: scintillation proximity radioligand binding assay with [3H]serotonin; conditions: Receptor binding 5HT2c Ki (nM), membranes of HEK293-h5-HT2C-5 cells; [3H]serotonin final 4 nM; IC50 converted by Cheng-Prusoff, Kd 7 nM
T1 construct: expressed in transfected cells; host or cells: HEK293 (HEK293-h5-HT2C-5 cell line), membranes
T1 sequence (P28335 33-458): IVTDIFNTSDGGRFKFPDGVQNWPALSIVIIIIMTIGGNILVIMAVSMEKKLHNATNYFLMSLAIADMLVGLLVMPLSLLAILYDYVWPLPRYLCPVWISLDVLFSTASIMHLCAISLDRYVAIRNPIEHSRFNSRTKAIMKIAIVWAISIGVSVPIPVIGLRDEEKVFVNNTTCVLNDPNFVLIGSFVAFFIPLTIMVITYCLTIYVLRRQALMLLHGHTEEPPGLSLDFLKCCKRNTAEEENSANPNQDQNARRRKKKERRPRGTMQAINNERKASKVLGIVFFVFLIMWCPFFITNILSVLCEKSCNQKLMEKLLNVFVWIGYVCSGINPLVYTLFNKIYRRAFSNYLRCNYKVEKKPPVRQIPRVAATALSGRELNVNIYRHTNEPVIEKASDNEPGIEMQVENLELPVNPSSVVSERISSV
Protocol: The gene was inserted into expression vectors containing resistance genes as selectable markers. […] The receptor was used under license from D. J. Julius at Columbia University.
The HEK293-h5-HT2C-5 cell line was seeded from frozen stocks into DMEM high glucose salts medium supplemented with sodium pyruvate, Penicillin/Streptomycin solution, G418 (0.25 g/L), hygromycin B ([…]), and Fetal Bovine Serum (3%). […] At approximately 90% confluency, the cells were rinsed with ice-cold PBS and scraped from the NUNC plates using 3M squeegees. The cells were broken with a VirTishear homogenizer. The remaining particulate matter was removed by low-speed centrifugation. Finally, the membranes were concentrated by high-speed centrifugation and resuspended in binding buffer, 50 mM TRIS, 5 mM MgCl2, pH 7.4. The preparation was held in a water-ice slurry while a pilot binding assay was performed (1.5 hours), and then quick-frozen in aliquots appropriate for 1 tube for each 96-well assay plate.
Assays were performed in Wallac microtitre PET plates designed for the Wallac microBeta LSC. Binding reactions contained test compound (11 μl), [^3H]serotonin (124 Ci/mmol, 11 μl for final 4 nM) and bead-membrane mixture (178 μl). The test compound was replaced by water to determine total binding, or by mianserin (5 μM) to define non-specific binding.
The bead-membrane mixture was made by adding 100 mg Wheatgerm Agglutinin SPA beads (Amersham) and membrane preparation (2-5 mg protein) in a total of 8 ml binding buffer for each 96-well assay plate. The mixture was stirred gently for 30 minutes at room temperature, followed by centrifugation (1000 RPM, Beckman Accuspin FR) for 10 minutes. The supernatant, containing excess membrane, was aspirated, and the beads resuspended in 18.5 ml binding buffer for each assay plate. The washed bead-membrane mix was then poured into a reagent reservoir. The mixture was pipetted into the assay plate with a multi-channel pipetter, maintaining constant stirring during pipetting.
After the reactions were complete, the plates were sealed with plastic tape and placed on a gyrotory shaker (150 rpm) for 5 minutes. After shaking, room temperature incubation continued for 2 hours. Finally, the plates were loaded into counting cassettes and counted with the Wallac microBeta LSC.
Eleven half-log serial dilutions of test compounds were made in water using the PE/Cetus Pro/Pette pipetter. These dilutions were distributed to assay plates using the same instrument, followed by radioligand and the bead-membrane mixture prepared as described above. The specifically bound cpm obtained were fit to a one-site binding model using GraphPad Prism ver. 2.0.

| SMILES | Ki [nM] |
| --- | --- |
| COc1cc2c3c(c1)c1c(n3CC2)CCNCC1 [Example 16, 2-methoxy-4,5,8,9,10,11-hexahydro-7H-azepino[4,5-b]pyrrolo[3,2,1-hi]indole hydrochloride] | 361 |
| Fc1cc2c3c(c1)c1c(n3CC2)CCNCC1 [Example 15, 2-fluoro-4,5,8,9,10,11-hexahydro-7H-azepino[4,5-b]pyrrolo[3,2,1-hi]indole hydrochloride] | 24 |
| CC1CCn2c3c(c4cccc1c42)CCNCC3 (single isomer, unassigned; (-)) [Example 13, (−)-4-methyl-5,6,9,10,11,12-hexahydro-4H,8H-azepino[4′,5′:4,5]pyrrolo[3,2,1-ij]quinoline hydrochloride] | 45 |
| c1cc2c3c(c1)c1c(n3CC2)CCNCC1 [Example 14, 4,5,8,9,10,11-hexahydro-7H-azepino[4,5-b]pyrrolo[3,2,1-hi]indole hydrochloride] | 28 |
| Cc1cc2c3c(c1)c1c(n3CCO2)CCNCC1 [Example 24, 5-methyl-1,2,8,9,10,11-hexahydro-7H-azepino[4,5-b][1,4]oxazino[2,3,4-hi]indole hydrochloride] | 29 |
| CC1CCn2c3c(c4cccc1c42)CCNCC3 (stereo not drawn) [Example 7, 4-methyl-5,6,9,10,11,12-hexahydro-4H,8H-azepino[4′,5′:4,5]pyrrolo[3,2,1-ij]quinoline hydrochloride] | 77 |
| CC1CCn2c3c(c4cccc1c42)CCNCC3 (single isomer, unassigned; (+)) [Example 12, (+)-4-methyl-5,6,9,10,11,12-hexahydro-4H,8H-azepino[4′,5′:4,5]pyrrolo[3,2,1-ij]quinoline hydrochloride] | 41 |
| COc1ccc2c3c1c1c(n3CCC2)CCNCC1 [Example 3, 1-methoxy-5,6,9,10,11,12-hexahydro-4H,8H-azepino[4′,5′:4,5]pyrrolo[3,2,1-ij]quinoline hydrochloride] | 27 |
| CC1Cc2cccc3c4c(n1c23)CCNCC4 (stereo not drawn) [Example 17, 5-methyl-4,5,8,9,10,11-hexahydro-7H-azepino[4,5-b]pyrrolo[3,2,1-hi]indole hydrochloride] | 65 |

same assay, conditions: membranes of HEK293-h5-HT2C-5 cells; [3H]serotonin final 4 nM; IC50 converted by Cheng-Prusoff, Kd 7 nM; read-out: Receptor binding 5HT2c Ki

| SMILES | Ki [nM] |
| --- | --- |
| CC1CCc2cccc3c4c(n1c23)CCNCC4 (single isomer, unassigned; (+)) [Example 8, (+)-6-methyl-5,6,9,10,11,12-hexahydro-4H,8H-azepino[4′,5′:4,5]pyrrolo[3,2,1-ij]quinoline hydrochloride] | 51 |
| c1cc2c3c(c1)c1c(n3CCO2)CCNCC1 [Example 21, 1,2,8,9,10,11-hexahydro-7H-azepino[4,5-b][1,4]oxazino[2,3,4-hi]indole hydrochloride] | 16 |
| Fc1cc2c3c(c1)c1c(n3CCC2)CCNCC1 [Example 4, 2-fluoro-5,6,9,10,11,12-hexahydro-4H,8H-azepino[4′,5′:4,5]pyrrolo[3,2,1-ij]quinoline hydrochloride] | 83 |
| CC1Cc2cccc3c4c(n(c23)C1)CCNCC4 (single isomer, unassigned; (-)) [Example 11, (−)-5-methyl-5,6,9,10,11,12-hexahydro-4H,8H-azepino[4′,5′:4,5]pyrrolo[3,2,1-ij]quinoline hydrochloride] | 96 |
| CC1CCc2cccc3c4c(n1c23)CCNCC4 (stereo not drawn) [Example 5, 6-methyl-5,6,9,10,11,12-hexahydro-4H,8H-azepino[4′,5′:4,5]pyrrolo[3,2,1-ij]quinoline hydrochloride] | 33 |
| Clc1ccc2c3c1c1c(n3CCO2)CCNCC1 [Example 22, 6-chloro-1,2,8,9,10,11-hexahydro-7H-azepino[4,5-b][1,4]oxazino[2,3,4-hi]indole hydrochloride] | 2.3 |
| c1cc2c3c(c1)c1c(n3CCS2)CCNCC1 [Example 27, 1,2,8,9,10,11-hexahydro-7H-azepino[4,5-b][1,4]thiazino[2,3,4-hi]indole hydrochloride] | 5.1 |
| CC1Cc2cccc3c4c(n(c23)C1)CCNCC4 (stereo not drawn) [Example 6, 5-methyl-5,6,9,10,11,12-hexahydro-4H,8H-azepino[4′,5′:4,5]pyrrolo[3,2,1-ij]quinoline hydrochloride] | 44 |
| CC1c2cccc3c4c(n(c23)C1C)CCNCC4 (stereo not drawn) [Example 18, 4,5-dimethyl-4,5,8,9,10,11-hexahydro-7H-azepino[4,5-b]pyrrolo[3,2,1-hi]indole hydrochloride] | 52 |
| Fc1ccc2c3c1c1c(n3CCO2)CCNCC1 [Example 25, 6-fluoro-1,2,8,9,10,11-hexahydro-7H-azepino[4,5-b][1,4]oxazino[2,3,4-hi]indole hydrochloride] | 8 |
| Fc1cc2c3c(c1)c1c(n3CCO2)CCNCC1 [Example 23, 5-fluoro-1,2,8,9,10,11-hexahydro-7H-azepino[4,5-b][1,4]oxazino[2,3,4-hi]indole hydrochloride] | 13 |
| Cc1ccc2c3c1c1c(n3CCO2)CCNCC1 [Example 20, 6-methyl-1,2,8,9,10,11-hexahydro-7H-azepino[4,5-b][1,4]oxazino[2,3,4-hi]indole hydrochloride] | 3.8 |
| CC1Cc2cccc3c4c(n(c23)C1)CCNCC4 (single isomer, unassigned; (+)) [Example 10, (+)-5-methyl-5,6,9,10,11,12-hexahydro-4H,8H-azepino[4′,5′:4,5]pyrrolo[3,2,1-ij]quinoline hydrochloride] | 70 |
| CC1Cn2c3c(c4cccc(c42)O1)CCNCC3 (stereo not drawn) [Example 26, 2-methyl-1,2,8,9,10,11-hexahydro-7H-azepino[4,5-b][1,4]oxazino[2,3,4-hi]indole hydrochloride] | 29 |
| c1cc2c3c(c1)c1c(n3C3CCCCC23)CCNCC1 (stereo not drawn) [Example 19, 2,3,4,5,8b,9,10,11,12,12a-decahydro-1H-azepino[4′,5′:4,5]pyrrolo[3,2,1-jk]carbazole hydrochloride] | 144 |
| CC1CCc2cccc3c4c(n1c23)CCNCC4 (single isomer, unassigned; (-)) [Example 9, (−)-6-methyl-5,6,9,10,11,12-hexahydro-4H,8H-azepino[4′,5′:4,5]pyrrolo[3,2,1-ij]quinoline hydrochloride] | 26 |
| c1cc2c3c(c1)c1c(n3CCC2)CCNCC1 [Example 1, 5,6,9,10,11,12-hexahydro-4H,8H-azepino[4′,5′:4,5]pyrrolo[3,2,1-ij]quinoline hydrochloride] | 13 |
| Cc1cc2c3c(c1)c1c(n3CCC2)CCNCC1 [Example 2, 2-methyl-5,6,9,10,11,12-hexahydro-4H,8H-azepino[4′,5′:4,5]pyrrolo[3,2,1-ij]quinoline hydrochloride] | 80 |
